Patent publication US20160303189A1, “Applications of Recombined Ganoderma Lucidum Immunoregulation Protein in Preparing Drugs for Treating Tissue Fibrosis” (priority 2014, published 2016)

Columns and labels:
Format in all cases: in vivo
[1] = tested on: Dox-induced myocardial damage; test: Treatment effect of rLZ-8 on Dox-induced myocardial damage in mice; conditions: Group H: 10 mg/kg fosinopril sodium tablets, intragastric, every two days
Protocol: Experiment grouping: there were 8 experimental groups, 10 mice/per group, saline group (Group A), model group (Group B), rLZ-8 3 μg/kg (Group C), rLZ-8 6 μg/kg(Group D), rLZ-8 12 μg/kg (Group E), rLZ-8 24 μg/kg (Group F), rLZ-8 48 μg/kg (Group G) and positive control group (Group H).
Treating process: The model making process was the same as embodiment 3. The models for groups B, C, D, E, F, G and H were made with 3 mg/kg Dox, and then as control groups, Groups A and B were given intraperitoneal injection of saline once every day, and Groups C, D, E, G and H were treated with rLZ-8, intravenous injection once every 2 days. The mice were weighed every 3 days and drugs were delivered in accordance with weights. The dose for Group C was 3 μg/kg, Group D was 6 μg/kg, Group E was 12 μg/kg, Group F was 24 μg/kg, Group G was 48 μg/kg, and as the positive control group, every two days the mice in Group H were given 10 mg/kg fosinopril sodium tablets by way of intragastric administration.
Experiment records: The deaths of the mice were recorded at 9:00 and 17:00 every day and activities of the mice were closely watched. […] The myocardial tissues were made into paraffin sections and were treated with HE staining and trichrome staining to do histological examinations.
Experimental results: In order to examine myocardial fibrosis grades of the mice and myocardial fibrosis status, in the seventh week, samples were taken according to the mortality rates. […] Sample taking: the mice were killed with the right amount of anesthetic injections and hearts of the mice were isolated under sterile conditions and rinsed with cold PBS, and then blood was blotted up filter paper. The ventricles were selected and crosscut at a 1/2 section. The myocardial tissue was put into 4% paraformaldehyde solution to be fixed, then it was paraffin sectioned and HE stained. Three slices were cut from each tissue and stained under the same conditions. The myocardial tissue of the mice was Masson stained and was photographed under 20 times 40 times microscopes and statistics were recorded.

[2] = tested on: model rats with liver fibrosis; test: Effects of rLZ-8 on body mass, liver weight and liver indexes of CCl4 model rats with liver fibrosis; conditions: 4 weeks
Protocol: (§1) Experiment grouping: model group, positive drug group and the treatment group were given subcutaneous injection of 50% volume fraction carbon tetrachloride olive oil solution, twice a week, starting 8:00 in the morning on Mondays and Thursdays, lasting for 8 weeks to replicate the cirrhosis model. For the first time the dose was 0.5 ml/100 g in accordance with weights of the mice, then 0.3 ml/100 g every four days in accordance with weights of the mice. They ate and drank water freely. At the same time on Mondays changes in rats' weights were monitored and the possibility of liver failure was preliminary estimated in order to reduce the mortality rated caused by replicating the cirrhosis model.
(§2) Treating process: In the control group (group A), the model group (group B), the positive drug group (glycyrrhizin group C), the low-dose treatment group (group D), the medium-dose treatment group (group E) and the high-dose treatment group (group F), 8 weeks after the cirrhosis models were built, the rats were anesthetized with ether, blood was drawn from retinal venous plexus to test serum liver biochemical indicators; the positive drug group were given subcutaneous injection of Ganlixin solution, the injection volume was 12.5 mg/kg. The process was performed once a day, lasting for 4 weeks; for the low, medium and high rLZ-8 dose groups, the concentration of subcutaneous injections were 15 μg/kg, 30 μg/kg and […] respectively; the injections were given once a day for 4 weeks; till the end of the 12th week, the mice were denied food but not water for 18 hours and anesthetized with ether. The eyeball blood of the rats was drawn, about […] samples of blood were centrifuged to get serum and then were put into a −20° C. deep freezer to be tested for serum biochemical indexes.

[3] = tested on: model rats with liver fibrosis; test: Effects of rLZ-8 on serum ALT, AST and ALB of CCl4 model rats with liver fibrosis; conditions: Group C: glycyrrhizin (Ganlixin) 12.5 mg/kg s.c. once a day
Protocol: as §1, §2
In the present experiment, the rats' liver fibrosis models were replicated by CCl4: olive oil (1:1) for 8 weeks. […] Compared with the control group, the difference was obvious and was statistically significant. The effect of medium dose rLZ-8 was the best.

[4] = tested on: lung tissue of mice (pulmonary fibrosis model); test: Model building of pulmonary fibrosis by BLM atomization, Szapiel grading of lung sections; conditions: for number of mice with Szapiel grade 0 (no alveolitis or fibrosis) / number of mice with Szapiel grade I (mild alveolitis or fibrosis) / number of mice with Szapiel grade II (medium alveolitis or fibrosis) / number of mice with Szapiel grade III (severe alveolitis or fibrosis): n=12
Protocol: 1) Modeling experiment grouping: Three groups were classified, a saline group (group A), a low BLM dose group (group B 4 mg/mL), a high BLM dose group (group C 8 mg/Ml), there were 12 mice in each group. The 12 mice in each group were divided into two groups, with 6 mice in each group and the two groups of mice were respectively put into 20×20×20 cm transparent glass containers with corresponding marks, then saline and BLM was sprayed respectively into the containers with medical ultrasonic nebulizers.
2) Model administration process: Each time the spray volume was 1 ml, then a glass cover was closed for 15 minutes and the mice were put back into cages to rest for 5 minutes, and the procedure was repeated 6 times.
The mice were killed respectively after 3 days, 7 days, 14 days and 21 days of feeding, and the lungs of the mice were taken out to see changes in appearance, color and the lung surface; after the lungs were taken out, broncho-alveolar lavage was done first, and then parts of the lung tissue were sliced into paraffin sections and histological examination was done on HE stain; RT-PCR was done on another parts of lung tissue to examine RNA level. Judged from histological analysis, RNA level, protein level and changes in amounts of inflammatory cells, a decision was made to see whether the model of pulmonary fibrosis is usable. The table below is the grading standards made by method of Szapiel to evaluate grading standard of seriousness of the pathological changes in the lung tissue.
There are 4 grades in Szapiel's pathological changes in lung tissue: “0” is grade 1; “I” is grade 2; “II” is grade 3; and “III” is grade 4. The higher the grade, the severer the degree of fibrosis is.

[5] = Group C: glycyrrhizin (Ganlixin solution) 12.5 mg/kg subcutaneous once a day
[6] = High BLM group, 8 mg/mL atomization
[7] = Low BLM group, 4 mg/mL atomization

Q: With `CCC(=O)O[C@@H](O[P@](=O)(CCCCc1ccccc1)CC(=O)N1C[C@H](C2CCCCC2)C[C@H]1C(=O)O)C(C)C` [fosinopril sodium] as the compound, how does the Deaths [1] read?
A: The Deaths was 0.

Q: And the “Number of Mice (sampled in week 7 according to mortality, 10 mice per group at start)” value [1]?
A: Its value is 7.

Q: And the “Interstitial Fibrosis grade 0, number of mice” value ([1]; week 7)?
A: The value was 6.

Q: What about the “Interstitial Fibrosis grade +++, number of mice” value ([1]; week 7) of the same compound?
A: The value was 0.

Q: And the “Interstitial Fibrosis grade ++, number of mice” value ([1]; week 7)?
A: Its value is 0.

Q: What about the “Interstitial Fibrosis grade +, number of mice” value ([1]; week 7) of the same compound?
A: The value was 1.

Q: What about the “Perivascular Fibrosis grade 0, number of mice” value ([1]; week 7) of the same compound?
A: The value was 5.

Q: And the “Perivascular Fibrosis grade +++, number of mice” value ([1]; week 7)?
A: The value was 0.

Q: And the “Perivascular Fibrosis grade ++, number of mice” value ([1]; week 7)?
A: Its value is 1.

Q: What about the “Perivascular Fibrosis grade +, number of mice” value ([1]; week 7) of the same compound?
A: The value was 1.

Q: And the “Vacuolization grade 0, number of mice” value ([1]; week 7)?
A: Its value is 6.

Q: And the “Vacuolization grade +++, number of mice” value ([1]; week 7)?
A: Its value is 0.

Q: And the “Vacuolization grade ++, number of mice” value ([1]; week 7)?
A: The value was 1.

Q: What about the “Vacuolization grade +, number of mice” value ([1]; week 7) of the same compound?
A: Its value is 0.

Q: Which Model weight ([2]; Group C: glycyrrhizin (Ganlixin solution) 12.5 mg/kg s.c. once a day, weight after modelling) does the source give for `CC1(C)[C@@H](O[C@H]2O[C@H](C(=O)O)[C@@H](O)[C@H](O)[C@H]2O[C@@H]2O[C@H](C(=O)O)[C@@H](O)[C@H](O)[C@H]2O)CC[C@]2(C)[C@H]3C(=O)C=C4[C@@H]5C[C@@](C)(C(=O)O)CC[C@]5(C)CC[C@@]4(C)[C@]3(C)CC[C@@H]12` [glycyrrhizin] here?
A: Its Model weight is 303.5 ± 39.2 g.

Q: What about the Final weights [2, 5] of the same compound?
A: The Final weights was 397.1 ± 46.4 g.

Q: And the Liver indexes [2, 5]?
A: Its Liver indexes is 3.1 ± 0.4%.

Q: What about the Liver weights [2, 5] of the same compound?
A: Its Liver weights is 12.43 ± 2.25 g.

Q: And the “serum ALB” value ([3]; Day 10)?
A: Its value is 34.8 ± 0.2 g/L.

Q: What about the “serum ALT” value ([3]; Day 10) of the same compound?
A: Its value is 143.3 ± 0.9 U/L.

Q: And the “serum AST” value ([3]; Day 10)?
A: The value was 176.2 ± 6.1 U/L.

Q: What about the “serum ALB” value ([3]; Day 20) of the same compound?
A: Its value is 30.0 ± 0.2 g/L.

Q: And the “serum ALT” value ([3]; Day 20)?
A: Its value is 126.2 ± 1.3 U/L.

Q: And the “serum AST” value ([3]; Day 20)?
A: The value was 205.8 ± 4.2 U/L.

Q: And the “serum ALB” value ([3]; Day 30)?
A: The value was 32.5 ± 0.1 g/L.

Q: What about the “serum ALT” value ([3]; Day 30) of the same compound?
A: The value was 49.5 ± 0.6 U/L.

Q: And the “serum AST” value ([3]; Day 30)?
A: The value was 59.0 ± 1.9 U/L.

Q: For bleomycin [BLM], which “number of mice with Szapiel grade 0 (no alveolitis or fibrosis)” value [4, 6] is on record?
A: The value was 0.

Q: And the “number of mice with Szapiel grade I (mild alveolitis or fibrosis)” value [4, 6]?
A: Its value is 1.

Q: And the “number of mice with Szapiel grade II (medium alveolitis or fibrosis)” value [4, 6]?
A: The value was 2.

Q: And the “number of mice with Szapiel grade III (severe alveolitis or fibrosis)” value [4, 6]?
A: Its value is 9.

Q: And the “number of mice with Szapiel grade 0 (no alveolitis or fibrosis)” value [4, 7]?
A: The value was 0.

Q: And the “number of mice with Szapiel grade I (mild alveolitis or fibrosis)” value [4, 7]?
A: Its value is 3.

Q: And the “number of mice with Szapiel grade II (medium alveolitis or fibrosis)” value [4, 7]?
A: The value was 8.

Q: And the “number of mice with Szapiel grade III (severe alveolitis or fibrosis)” value [4, 7]?
A: Its value is 1.

Q: What about the deaths of mice ([4]; high BLM dose group, 8 mg/mL) of the same compound?
A: The deaths of mice was “most of them died of respiratory failures”.

Q: What about the “lung sections of the mice showing severe fibrosis” value ([4]; high BLM dose group, 8 mg/mL) of the same compound?
A: The value was 75%.

Q: And the “lung sections of the mice showing medium fibrosis” value ([4]; low BLM dose group, 4 mg/mL)?
A: The value was 66%.
